Source: patent US6914045B2, “Glycopeptide antibiotics” (Wyeth Holdings Corporation, priority 2001, dated 2005)
Converted amounts (≈) assume the structure as drawn.

How the values were obtained:
Escherichia coli = assay: in vitro antibacterial evaluation, MIC by broth dilution; format: cell-based; settings: 18 hours at 35° C.
How it was run: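 MIC is the lowest antibiotic concentration (tested 64-0.06 μg/mL) preventing growth of a 5×10^5 CFU/mL inoculum. Determined by broth dilution in Mueller-Hinton II medium following NCCLS standard M7-A2.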

[1] = clinical pathology (serum clinical chemistry) in mice; format: in vivo; settings: CD-1 mice, 20 mg/kg intravenously daily for 9 days, sera day 10
Procedure: 20-day-old CD-1 mice were divided into a vehicle control group (5 mice) and a treatment group (5 mice). Samples of glycopeptide antibiotics were administered at 20 mg/kg intravenously daily for 9 days.

[2] = anatomic pathology (histopathology of heart and kidney) in mice; format: in vivo; settings: CD-1 mice, 20 mg/kg intravenously daily for 9 days, necropsy day 10, microscopic histopathology
Procedure: Samples of tissues from necropsied mice were formalin-fixed, paraffin-embedded, sectioned, stained with hematoxylin and eosin, and examined microscopically. Histopathologic findings were recorded. These findings were subjectively graded on a scale corresponding to slight, mild, moderate, marked and severe as compared to untreated controls.

Enterococcus sp. = assay: in vitro antibacterial evaluation, MIC by broth dilution; format: cell-based; settings: broth dilution, 18 hours at 35° C.
How it was run: (§1)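 MIC, the lowest antibiotic concentration preventing growth, was read across 64-0.06 μg/mL with 5×10^5 CFU/mL inoculum. Method followed NCCLS M7-A2 broth dilution using Mueller-Hinton II; Gram-positive strains covered recent methicillin-, penicillin- and/or vancomycin-resistant clinical isolates.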

Staphylococcus sp. = assay: as above; format: cell-based; settings: broth dilution, 18 hours at 35° C.
How it was run: as §1

Streptococcus sp. = assay: as above; format: cell-based; settings: broth dilution, 18 hours at 35° C.
How it was run: as §1

For `CC(c1ccccc1)C1NC(=O)CNC(=O)C(CO)NC(=O)C(C(O)C2CN(CCCCCCCCCCCCO)C(=N)N2C2OC(CO)C(O)C(O)C2O)NC(=O)C(C(O)C2CNC(=N)N2)NC(=O)C(Cc2ccc(OC3OC(CO)C(OC4OC(CO)C(O)C(O)C4O)C(O)C3O)cc2)NC1=O` (stereo not drawn) [Example 61, Cyclo[glycyl-β-methylphenylalanyl-O-(4-O-hexopyranosylhexopyranosyl)tyrosl-3-(2-iminoimidazolidin-4-yl)seryl-3-[3-hexopyranosyl-1-(12-hydroxydodecyl)-2-iminoimidazolidin-4-yl]-serylseryl]], the “MIC Escherichia coli (ATCC 25922)” value (Escherichia coli) was 128 µg/mL (≈ 86.5 µM), the “MIC Escherichia coli (GC 4559)” value (Escherichia coli) was 128 µg/mL (≈ 86.5 µM) and the “MIC Escherichia coli (GC 4560)” value (Escherichia coli) was 8 µg/mL (≈ 5.41 µM). For the same compound, the “Clinical Chemistry (Day 10) % of Control, BUN” value [1] was “+157%”, the “Clinical Chemistry (Day 10) % of Control, Creatinine” value [1] was “+122%” and the “Anatomical Pathology (Day 10), Heart” value [2] was 0. The “Anatomical Pathology (Day 10), Kidney” value [2] was “+++”, the “MIC Enterococcus avium (GC 4558)” value (Enterococcus sp.; Enterococcus avium (GC 4558)) was 64 µg/mL (≈ 43.3 µM) and the “MIC Enterococcus faecalis (ATCC 29212)” value (Enterococcus sp.; Enterococcus faecalis (ATCC 29212)) was 128 µg/mL (≈ 86.5 µM). For the same compound, the “MIC Enterococcus faecalis (GC 4552)” value (Enterococcus sp.; Enterococcus faecalis (GC 4552)) was 128 µg/mL (≈ 86.5 µM), the “MIC Enterococcus faecalis (GC 4553)” value (Enterococcus sp.; Enterococcus faecalis (GC 4553)) was 128 µg/mL (≈ 86.5 µM) and the “MIC Enterococcus faecalis (GC 4554)” value (Enterococcus sp.; Enterococcus faecalis (GC 4554)) was 128 µg/mL (≈ 86.5 µM). The “MIC Enterococcus faecalis (GC 6189)” value (Enterococcus sp.; Enterococcus faecalis (GC 6189)) was 128 µg/mL (≈ 86.5 µM), the “MIC Enterococcus faecium (GC 2243)” value (Enterococcus sp.; Enterococcus faecium (GC 2243)) was >128 µg/mL and the “MIC Enterococcus faecium (GC 4556)” value (Enterococcus sp.; Enterococcus faecium (GC 4556)) was 128 µg/mL (≈ 86.5 µM). For the same compound, the “MIC Enterococcus faecium (GC 4557)” value (Enterococcus sp.; Enterococcus faecium (GC 4557)) was 128 µg/mL (≈ 86.5 µM), the “MIC Enterococcus avium (GC 4558)” value (Enterococcus sp.) was 64 µg/mL (≈ 43.3 µM) and the “MIC Enterococcus faecalis (ATCC 29212)” value (Enterococcus sp.) was 128 µg/mL (≈ 86.5 µM). The “MIC Enterococcus faecalis (GC 2242)” value (Enterococcus sp.) was 128 µg/mL (≈ 86.5 µM), the “MIC Enterococcus faecalis (GC 2691)” value (Enterococcus sp.) was 128 µg/mL (≈ 86.5 µM) and the “MIC Enterococcus faecalis (GC 3059)” value (Enterococcus sp.) was 128 µg/mL (≈ 86.5 µM). The “MIC Enterococcus faecalis (GC 4552)” value (Enterococcus sp.) was 128 µg/mL (≈ 86.5 µM), the “MIC Enterococcus faecalis (GC 4553)” value (Enterococcus sp.) was 128 µg/mL (≈ 86.5 µM) and the “MIC Enterococcus faecalis (GC 4554)” value (Enterococcus sp.) was 128 µg/mL (≈ 86.5 µM). For the same compound, the “MIC Enterococcus faecalis (GC 6189)” value (Enterococcus sp.) was 128 µg/mL (≈ 86.5 µM), the “MIC Enterococcus faecium (GC 2243)” value (Enterococcus sp.) was >128 µg/mL and the “MIC Enterococcus faecium (GC 4556)” value (Enterococcus sp.) was 128 µg/mL (≈ 86.5 µM). For the same compound, the “MIC Enterococcus faecium (GC 4557)” value (Enterococcus sp.) was 128 µg/mL (≈ 86.5 µM), the “MIC Enterococcus faecalis (GC 2242)” value (Enterococcus sp.; strain GC 2242) was 128 µg/mL (≈ 86.5 µM) and the “MIC Enterococcus faecalis (GC 2691)” value (Enterococcus sp.; strain GC 2691) was 128 µg/mL (≈ 86.5 µM). The “MIC Enterococcus faecalis (GC 3059)” value (Enterococcus sp.; strain GC 3059) was 128 µg/mL (≈ 86.5 µM), the “MIC Staphylococcus aureus (ATCC 29213)” value (Staphylococcus sp.; strain ATCC 29213) was >128 µg/mL and the “MIC Staphylococcus aureus (GC 1131)” value (Staphylococcus sp.; strain GC 1131) was >128 µg/mL. For the same compound, the “MIC Staphylococcus aureus (GC 3051)” value (Staphylococcus sp.; strain GC 3051) was >128 µg/mL, the “MIC Staphylococcus aureus (GC 3053)” value (Staphylococcus sp.; strain GC 3053) was 128 µg/mL (≈ 86.5 µM) and the “MIC Staphylococcus aureus (GC 4541)” value (Staphylococcus sp.; strain GC 4541) was >128 µg/mL. For the same compound, the “MIC Staphylococcus aureus (GC 4542)” value (Staphylococcus sp.; strain GC 4542) was >128 µg/mL, the “MIC Staphylococcus aureus-SMITH (GC 4543)” value (Staphylococcus sp.; strain GC 4543) was >128 µg/mL and the “MIC Staphylococcus aureus (GC 4544)” value (Staphylococcus sp.; strain GC 4544) was >128 µg/mL. The “MIC Staphylococcus aureus (GC 4545)” value (Staphylococcus sp.; strain GC 4545) was >128 µg/mL, the “MIC Staphylococcus haemolyticus (GC 4546)” value (Staphylococcus sp.; strain GC 4546) was >128 µg/mL and the “MIC Coagulase Negative Staphylococcus (GC 4547)” value (Staphylococcus sp.; strain GC 4547) was 128 µg/mL (≈ 86.5 µM). The “MIC Coagulase Negative Staphylococcus (GC 4548)” value (Staphylococcus sp.; strain GC 4548) was >128 µg/mL, the “MIC Coagulase Negative Staphylococcus (GC 4549)” value (Staphylococcus sp.; strain GC 4549) was 128 µg/mL (≈ 86.5 µM) and the “MIC Coagulase Negative Staphylococcus (GC 4551)” value (Staphylococcus sp.; strain GC 4551) was >128 µg/mL. For the same compound, the “MIC Coagulase Negative Staphylococcus (GC 6257)” value (Staphylococcus sp.; strain GC 6257) was >128 µg/mL, the “MIC Streptococcus agalactiae (GC 4564)” value (Streptococcus sp.) was 128 µg/mL (≈ 86.5 µM) and the “MIC Streptococcus pneumoniae (ATCC 6301)” value (Streptococcus sp.) was 128 µg/mL (≈ 86.5 µM). For the same compound, the “MIC Streptococcus pneumoniae (GC 1894)” value (Streptococcus sp.) was 64 µg/mL (≈ 43.3 µM), the “MIC Streptococcus pneumoniae (GC 4565)” value (Streptococcus sp.) was 64 µg/mL (≈ 43.3 µM) and the “MIC Streptococcus pyogenes (GC 4563)” value (Streptococcus sp.) was 128 µg/mL (≈ 86.5 µM). For the same compound, the “MIC Streptococcus pneumoniae (ATCC 6301)” value (Streptococcus sp.; strain ATCC 6301) was 128 µg/mL (≈ 86.5 µM), the “MIC Streptococcus pneumoniae (GC 1894)” value (Streptococcus sp.; strain GC 1894) was 64 µg/mL (≈ 43.3 µM) and the “MIC Streptococcus pyogenes (GC 4563)” value (Streptococcus sp.; strain GC 4563) was 128 µg/mL (≈ 86.5 µM). The “MIC Streptococcus agalactiae (GC 4564)” value (Streptococcus sp.; strain GC 4564) was 128 µg/mL (≈ 86.5 µM) and the “MIC Streptococcus pneumoniae (GC 4565)” value (Streptococcus sp.; strain GC 4565) was 64 µg/mL (≈ 43.3 µM).
